Laboratory results as given in PMC11433870, “Neurotoxicity, Neuroprotection, In Vitro MAOA/MAOB Inhibitory Activity Assessment, Molecular Docking, and Permeability Assay Studies of Newly Synthesized Hydrazones Containing a Pyrrole Ring” (Molecules, 2024).
Where “and” joins values, the source holds several entries; their conditions need not be identical. Equal values may be shown once.

What was measured:
[1] = system: isolated rat brain synaptosomes; experiment: Neurotoxicity: synaptosomal viability (MTT), substances applied alone; format: cell-based; conditions: 50 µM applied alone, 1 h, compared to control (untreated synaptosomes)
Procedure: (§1) Synaptosomes and mitochondria were obtained by multiple, subcellular fractionation using a Percoll gradient. The necessary brain homogenate was prepared and centrifuged at 1000× g for 5 min at +4 °C. After centrifugation, the supernatants were collected and centrifuged again at 1000× g for 5 min at +4 °C. The supernatants from the two centrifugations were mixed and distributed into four tubes. The tubes were centrifuged at 10,000× g for 20 min at +4 °C three times. The last two centrifugations were for purification of synaptosomes and mitochondria.
(§2) The isolation of the required fractions was based on the formation of a colloidal solution of silicon (Percoll), as per the procedure, including: 1. Preparation of a 90% stock solution of Percoll, followed by preparation of two Percoll solutions of different percentages: 16% and 10%. An amount of 4 mL of each of the prepared 16% and 10% Percoll solutions was placed in six test tubes. A 90% Percoll (7.5% Percoll) was added to the precipitate obtained from the previous step from the last centrifugation. The obtained mixtures in all 12 tubes were centrifuged for 20 min at 15,000× g +4 °C. After centrifugation, three layers are formed in the tubes. The bottom layer contains mitochondria, the top layer contains lipids, and the middle layer—at the 16% to 10% Percoll limit—contains synaptosomes. The respective layer from each tube is removed through a glass pasteurizer and collected into one. Buffer B + glucose is added to it. The mixture was centrifuged at 10,000× g for 20 min at +4 °C. Thus, the isolation buffer is exchanged with the incubation buffer. After centrifugation, the pellet where the synaptosomes are mixed and made up with buffer B + glucose.
(§3) Synaptosomes and mitochondria were incubated with the test substances at a concentration of 50 µM for 1 h.
After 1 h incubation with the substances and toxic agent, synaptosomes were centrifuged on a microcentrifuge for 1 min at 15,000× g. The pellet was mixed gently with buffer B + glucose, and the supernatant where 6-OHDA was discarded to prevent oxidation of MTT. Centrifuge again at 15,000× g for 1 min. After the second wash, buffer B + glucose was added to the pellet. To the ‘washed’ synaptosomes, 60 µL of MTT solution is added. The plates were incubated with the MTT solution at 37 °C for 10 min. After incubation, the samples were centrifuged at 15,000× g for 2 min. The excess liquid was removed, and a DMSO solution was used to dissolve the formed formazan crystals. After dissolution, the amount of formazan is measured spectrophotometrically at λ = 580 nm.

[2] = system: isolated rat brain synaptosomes; experiment: Neurotoxicity: reduced glutathione (GSH) level in synaptosomes, substances applied alone; format: cell-based; conditions: 50 µM applied alone, 1 h, compared to control
Procedure: as §1, §2, §3
(§4) After precipitation of the proteins with trichloroacetic acid, the thiol groups in the supernatant were determined by DTNB, which produced a yellow-colored compound that absorbs light at λ = 412 nm. After incubation, synaptosomes were centrifuged at 4000× g for 3 min. The supernatant was removed and the pellet taken for GSH determination. It was treated with 5% trichloroacetic acid, then left for 10 min on ice. It was centrifuged at 8000× g for 10 min (2 °C). The supernatant is taken for GSH determination and frozen at −20 °C. Immediately before measurement, the samples are neutralized with 5N NaOH [58].

[3] = system: isolated rat brain mitochondria; experiment: Neurotoxicity: MDA production in brain mitochondria, substances applied alone; format: cell-based; conditions: 50 µM applied alone, compared to control
Procedure: as §1, §2, §3
To the mitochondria was added 0.3 mL of 0.2% thiobarbituric acid and 0.25 mL of sulfuric acid (0.05 M), and the mixture was boiled for 30 min. After boiling, the tubes were placed on ice, and 0.4 mL of n-butanol was added to each, then centrifuged at 3500× g for 10 min. The amount of MDA was determined spectrophotometrically at 532 nm.

[4] = system: isolated rat brain mitochondria; experiment: Neurotoxicity: GSH level in brain mitochondria, substances applied alone; format: cell-based; conditions: 50 µM applied alone, compared to control
Procedure: as §1, §2
[…]. After centrifugation of the homogenate at 6000× g, a 0.04% solution of DTNB was added to the supernatant to give a yellow color, the determination being spectrophotometric at 412 nm.

[5] = system: isolated rat brain microsomes; experiment: Neurotoxicity: MDA production in brain microsomes, substances applied alone; format: cell-based; conditions: 50 µM applied alone, compared to control
Procedure: (§5) The brain was homogenized in 9 volume parts of 0.1 M Tris buffer containing: 0.1 mM dithiothreitol, 0.1 mM phenylmethylsulfonyl fluoride, 0.2 mM EDTA, 1.15% KCl, and 20% (v/v) glycerol (pH 7.4). The resulting homogenate was centrifuged twice at 17,000× g for 30 min. The supernatants from the two centrifugations were pooled and centrifuged twice at 100,000× g for 1 h. The pellet was frozen in 0.1 M Tris buffer.
(§6) After completion of incubation of the microsomes with the substances and toxic agent, the reaction was stopped by the addition of 0.5 mL of 20% trichloroacetic acid, followed by 0.5 mL of 0.67% thiobarbituric acid. The ongoing reactions are associated with the formation of a colored complex between the malondialdehyde formed and thiobarbituric acid. The determination of MDA was spectrophotometric at 535 nm. A molar extinction coefficient of […] was used for the calculation.

[6] = system: isolated rat brain synaptosomes; experiment: 6-OHDA-induced neurotoxicity model: GSH level; format: cell-based; conditions: 50 µM in combination with 6-OHDA (150 µM), compared to the toxic agent
Procedure: as §1, §2, §3
Synaptosomes were incubated with 6-OHDA (150 μM) for 1 h.
as §4

[7] = system: isolated rat brain microsomes; experiment: Fe2+/AA-induced non-enzyme lipid peroxidation model: MDA production; format: cell-based; conditions: 50 µM in combination with Fe2+/AA, compared to the toxic agent
Procedure: as §5
Non-enzyme-induced lipid peroxidation was induced with 20 μM ferrous sulfate solution and 0.5 mM ascorbic acid solution [62].
as §6

[8] = biological target: T1, human recombinant MAOA enzyme (hMAOA) (Homo sapiens, UniProt P21397); experiment: Human recombinant MAOA enzyme activity (fluorometric, Amplex Red); format: biochemical; conditions: read-out: IC50 (EC50), (µM ± SD) hMAOA
T1 sequence (P21397 1-527): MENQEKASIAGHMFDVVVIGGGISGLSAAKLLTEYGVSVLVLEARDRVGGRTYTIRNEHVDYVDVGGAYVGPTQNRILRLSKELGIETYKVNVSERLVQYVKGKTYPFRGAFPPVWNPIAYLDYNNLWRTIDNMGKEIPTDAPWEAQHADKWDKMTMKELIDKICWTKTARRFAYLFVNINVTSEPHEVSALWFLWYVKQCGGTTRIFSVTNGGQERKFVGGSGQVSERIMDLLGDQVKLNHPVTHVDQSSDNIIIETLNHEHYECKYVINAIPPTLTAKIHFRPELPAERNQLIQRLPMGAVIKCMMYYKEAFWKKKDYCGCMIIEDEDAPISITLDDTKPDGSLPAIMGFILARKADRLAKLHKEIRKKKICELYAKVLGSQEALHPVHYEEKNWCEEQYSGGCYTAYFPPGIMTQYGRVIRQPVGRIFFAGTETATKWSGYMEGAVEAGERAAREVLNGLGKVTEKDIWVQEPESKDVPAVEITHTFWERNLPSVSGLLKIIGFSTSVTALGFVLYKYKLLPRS

[9] = biological target: T2, human recombinant MAOB enzyme (hMAOB) (Homo sapiens, UniProt P27338); experiment: Human recombinant MAOB enzyme activity (fluorometric, Amplex Red); format: biochemical; conditions: for inhibition at 1 µM: compared to control (pure hMAOB); for IC50: read-out: IC50 (EC50), (µM ± SD) hMAOB;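 for all read-outs here: tyramine as substrate, H2O2 formation detected by horseradish peroxidase coupled Amplex Red fluorescence read at 570 and 690 nm, compounds incubated with enzyme 30 min at 37 °C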
T2 sequence (P27338 1-520): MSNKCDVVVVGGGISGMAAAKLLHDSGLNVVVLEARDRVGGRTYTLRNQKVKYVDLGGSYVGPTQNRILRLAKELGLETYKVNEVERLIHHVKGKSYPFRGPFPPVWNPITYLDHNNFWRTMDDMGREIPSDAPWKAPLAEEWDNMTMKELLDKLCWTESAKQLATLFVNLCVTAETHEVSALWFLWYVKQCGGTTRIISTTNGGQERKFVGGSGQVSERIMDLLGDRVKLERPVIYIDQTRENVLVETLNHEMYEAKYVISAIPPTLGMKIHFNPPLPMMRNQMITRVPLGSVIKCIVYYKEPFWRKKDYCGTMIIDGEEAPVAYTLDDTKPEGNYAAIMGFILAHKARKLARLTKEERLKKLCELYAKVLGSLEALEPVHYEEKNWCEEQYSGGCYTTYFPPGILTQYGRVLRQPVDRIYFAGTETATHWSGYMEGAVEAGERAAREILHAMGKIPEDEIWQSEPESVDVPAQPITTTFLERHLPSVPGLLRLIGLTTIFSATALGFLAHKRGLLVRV

[10] = pH 7.4, 50 µM, 4 h, 25 °C; Pe calculated in 10^−6 cm/s, presented as −logPe
[11] = system: isolated rat brain mitochondria; experiment: t-BuOOH-induced oxidative stress model: GSH level; conditions: 50 µM in combination with t-BuOOH (75 µM), compared to the toxic agent
[12] = system: isolated rat brain mitochondria; experiment: t-BuOOH-induced oxidative stress model: MDA production; conditions: 50 µM in combination with t-BuOOH (75 µM), compared to the toxic agent

IC50 [8] [µM]	SI: hMAOB selectivity index = IC50(hMAOA)/IC50(hMAOB) [9]	inhibition at 1 µM [9] [%]	IC50 [9] [µM]	PAMPA BBB −logPe [10]	SMILES	decrease of synaptosomal viability [1] [%]	decrease of glutathione (GSH) level [2] [%]	increase of MDA production [3] [%]	decrease of GSH level [4] [%]	increase of MDA production [5] [%]	preservation of GSH level [6] [%]	decrease of MDA production [7] [%]	preservation of GSH level [11] [%]	reduction of MDA production [12] [%]
> 100	>204	45	0.49 ± 0.09	4.464 ± 0.026 and 4.464	CCOC(=O)c1cc(-c2ccc(Br)cc2)n(CCC(=O)NN=Cc2cc(OC)c(O)c(OC)c2)c1C [8d]	20	15	40	15	30	70	54	80	38
> 100	>123	25	0.815 ± 0.2	4.601 ± 0.040	CCOC(=O)c1cc(-c2ccc(Br)cc2)n(CC(=O)NN=Cc2ccc([N+](=O)[O-])cc2)c1C [7c]	35	20	53	25	51	50	35	40	18
> 100	>204	45	0.491 ± 0.09	4.819 ± 0.004 and 4.819	CCOC(=O)c1cc(-c2ccc(Br)cc2)n(CC(=O)NN=Cc2cc(OC)c(O)c(OC)c2)c1C [7d]	20	15	34	15	27	70	52	80	35
> 100	>122	20	0.821 ± 0.1	5.268 and 5.268 ± 0.014	CCOC(=O)c1cc(-c2ccc(Br)cc2)n(CCC(=O)NN=Cc2ccc(N(C)C)cc2)c1C [8a]	35	25	60	20	55	40	35	60	18
> 100	>122	20	0.817 ± 0.09	5.714 and 5.714 ± 0.041	CCOC(=O)c1cc(-c2ccc(Br)cc2)n(CCC(=O)NN=Cc2ccc(OC)cc2OC)c1C [8e]	35	20	69	25	63	50	25	60	11
> 100	>123	35	0.81 ± 0.09	4.814 ± 0.15	CCOC(=O)c1cc(-c2ccc(Br)cc2)n(CC(=O)NN=Cc2ccc(OC)cc2OC)c1C [7e]	30	25	50	25	52	40	31	50	10
> 100	>181	40	0.551 ± 0.1	4.416 ± 0.022 and 4.416	CCOC(=O)c1cc(-c2ccc(Br)cc2)n(CC(=O)NN=Cc2ccc(Cl)cc2)c1C [7b]	25	15	43	15	40	60	46	70	28

SMILES	IC50 [8] [µM]	SI: hMAOB selectivity index = IC50(hMAOA)/IC50(hMAOB) [9]	inhibition at 1 µM [9] [%]	IC50 [9] [µM]	PAMPA BBB −logPe [10]	decrease of synaptosomal viability [1] [%]	decrease of glutathione (GSH) level [2] [%]	increase of MDA production [3] [%]	decrease of GSH level [4] [%]	increase of MDA production [5] [%]	preservation of GSH level [6] [%]	decrease of MDA production [7] [%]	preservation of GSH level [11] [%]	reduction of MDA production [12] [%]
CC(C)NCC(O)COc1cccc2ccccc12.Cl (stereo not drawn) [Propranolol HCl, reference compound]					4.389 ± 0.014									
